# Measurements reported in paper PMC8296573, “Synthesis and Biological Evaluation of Fingolimod Derivatives as Antibacterial Agents” (ACS Omega, 2021).
# Like-named read-outs stand apart in the source and are kept apart here.
# Columns and labels:
# Assay type in all cases: cell-based, Staphylococcus aureus
# S. aureus ATCC 25923 = experiment: Antibacterial activity, pre-exposure (planktonic cells and biofilm formation); details: for Initial screening result (active = at least 60% inhibition of planktonic cells and biofilm formation): 50 μM, S. aureus; for MIC: Staphylococcus aureus, ATCC25923, read-out: MIC (S. aureus)
# Procedure: (§1) The antimicrobial activity was assessed in a similar way for the initial screening and the dose–response evaluation against different bacterial strains. With the exception of the post-exposure experiment, the compounds were added to the wells along with the bacteria to test the ability of compounds to prevent bacterial growth and biofilm formation (pre-exposure). The compounds were diluted in DMSO and plated directly in 96-well plates before adding the bacterial culture, and plates were incubated for 18 h under aerobic conditions at 37 °C with shaking (220 rpm). The antibacterial activity of the compounds was assessed on planktonic cells and biofilms separately using two different measurements for each: optical density (turbidity) and resazurin reduction (viability) on planktonic cells and resazurin followed by a crystal violet staining assay (total biomass) on biofilms, as described in the following sections.
# (§2) The resazurin staining was performed according to the protocol previously optimized with a few modifications.[46] Briefly, the planktonic solution was first transferred into a new 96-well plate and the OD of the planktonic solution was measured using a Varioskan LUX Multimode microplate reader (Thermo Scientific, Vantaa, Finland). Then, 10 μL of a 400 μM resazurin (R7017, Sigma-Aldrich, St. Louis, MO) diluted in phosphate-buffered saline (PBS) (Thermo Fisher Scientific, MA) was added to the wells (for a final resazurin concentration of 20 μM). The plate was incubated in the dark with shaking (220 rpm) for about 3–10 min at room temperature with S. aureus and A. baumannii (until the bacteria controls turned pink) or for 20 min at 37 °C with P. aeruginosa. Fluorescence was measured at λex = 560 nm and λem = 590 nm using the top optics of the Varioskan LUX Multimode microplate reader. The planktonic plate was then discarded. The original challenge plate containing the biofilms was washed once with PBS, and 200 μL of a 20 μM resazurin solution was added to the wells. The plate was incubated in the dark at 37 °C with shaking (220 rpm) for 30 min with S. aureus, 60 min with A. baumannii, and 90 min with P. aeruginosa. Fluorescence was measured as described for the planktonic solution. The biofilms were next treated with crystal violet staining.
# (§3) After removing the resazurin solution from the plate, biofilms were fixed with ethanol 100% for 15 min at room temperature. Ethanol was then removed, and the biofilms were left to air-dry completely at RT. Crystal violet, diluted to 1:100 in deionized water from the 2.3% commercial solution (HT90132, Sigma-Aldrich, St. Louis, MO), was added to the wells and, after a 5 min incubation with the dye, the biofilms were washed twice with deionized water and left to air-dry for about 10 min. The dye was solubilized in ethanol 100% for 1 h, and absorbance was measured at 595 nm using a Multiskan Sky microplate spectrophotometer (Thermo Scientific, Vantaa, Finland).
# S. aureus P2 = experiment: Antibacterial activity, pre-exposure; details: S. aureus P2, pre-exposure, 50 µM, ± SD; for inhibition at 50 µM: Staphylococcus aureus
# Procedure: as §1, §2, §3
# S. aureus ATCC 12598 = experiment: Antibacterial activity, pre-exposure; details: S. aureus ATCC 12598, pre-exposure, 50 µM, ± SD; for inhibition at 50 µM: Staphylococcus aureus, ATCC12598
# Procedure: as §1, §2, §3
# [1] = read-out: Average inhibition %, biofilms biomass
# [2] = read-out: Average inhibition %, planktonic cells turbidity
SMILES,MIC (S. aureus ATCC 25923) [µM],also measured
"CCCCCCc1ccc(CCC(N)(CO)CO)cc1 [Compound 10, 2-Amino-2-(4-hexylphenethyl)propane-1,3-diol]",100,Initial screening result (active = at least 60% inhibition of planktonic cells and biofilm formation) (S. aureus ATCC 25923): only limited activity against S. aureus biofilms
"NC(CO)(CO)CCc1ccc(Cc2ccccc2)cc1 [Compound 12, 2-Amino-2-(4-benzylphenethyl)propane-1,3-diol]",> 100,–
"COc1ccc(-c2ccc(CCC(N)(CO)CO)cc2)cc1OC [Compound 13, 2-Amino-2-[2-(3′,4′-dimethoxy-[1,1′-biphenyl]-4-yl)ethyl]propane-1,3-diol]",> 100,–
"NC(CO)(CO)CCc1ccc(-c2ccc(OCc3ccccc3)cc2)cc1 [Compound 14, 2-Amino-2-[2-[4′-(benzyloxy)-[1,1′-biphenyl]-4-yl]ethyl]propane-1,3-diol]",> 100,–
"NC(CO)(CO)CCc1ccc(/C=C/Cc2ccccc2)cc1 [Compound 16, (E)-2-Amino-2-[4-(3-phenylprop-1-en-1-yl)phenethyl]propane-1,3-diol]",> 100,–
"NC(CO)(CO)CCc1ccc(OCc2ccccc2)cc1 [Compound 25, 2-Amino-2-[4-(benzyloxy)phenethyl]propane-1,3-diol]",> 100,–
"NC(CO)(CO)CCc1ccc(OCc2ccc(C(F)(F)F)cc2)cc1 [Compound 26, 2-Amino-2-[4-[[4-(trifluoromethyl)benzyl]oxy]phenethyl]propane-1,3-diol]",> 100,–
NC(CO)(CO)CCc1ccc(OCc2ccc(C(F)(F)F)nc2)cc1 [Compound 27],> 100,–
"NC(CO)(CO)CCc1ccc(OCc2ccc3ccc(Cl)cc3n2)cc1 [Compound 28, 2-Amino-2-[4-[(7-chloroquinolin-2-yl)methoxy]phenethyl]propane-1,3-diol]",> 100,–
"CCCCc1ccc(COc2ccc(CCC(N)(CO)CO)cc2)cc1 [Compound 29, 2-Amino-2-[4-[(4-butylbenzyl)oxy]phenethyl]propane-1,3-diol]",> 100,–
"NC(CO)(CO)CCc1ccc2ccccc2n1 [Compound 33, 2-Amino-2-[2-(quinolin-2-yl)ethyl]propane-1,3-diol]",> 100,–
"CCCCCCCCc1ccc(CCC(N)(CO)CO)nc1 [Compound 61, 2-Amino-2-[2-(5-octylpyridin-2-yl)ethyl]propane-1,3-diol]",100,Initial screening result (active = at least 60% inhibition of planktonic cells and biofilm formation) (S. aureus ATCC 25923): did not show an inhibitory activity comparable to fingolimod
"CC1(C)S[C@@H]2[C@H](NC(=O)Cc3ccccc3)C(=O)N2[C@H]1C(=O)O [Penicillin-G, reference compound]",–,"Average inhibition %, biofilms viability (S. aureus P2): 9.5 ± 9.8%; Average inhibition %, planktonic cells viability (S. aureus P2): 14.9 ± 10.3%; inhibition at 50 µM (S. aureus P2; [1]): 17.4 ± 13.2%; inhibition at 50 µM (S. aureus P2; [2]): 12.2 ± 14.5%; Average inhibition %, biofilms viability (S. aureus ATCC 12598): 97.5 ± 1.5%; Average inhibition %, planktonic cells viability (S. aureus ATCC 12598): 99.7 ± 0%; inhibition at 50 µM (S. aureus ATCC 12598; [1]): 95.8 ± 1%; inhibition at 50 µM (S. aureus ATCC 12598; [2]): 99.7%"
